Series [1] concerns HL-60 cells. Description: Protein synthesis ([3H]leucine incorporation) in HL-60 cells. It is filed as cell-based. Particulars: Homo sapiens; cultured HL-60 cells incubated for 2 hours; read-out: 50% inhibitory activity on the incorporation of [3H]-leucine into protein. From the text:
(§1) FIGS. 1, 2, and 3 show the inhibitory effects of compounds I-IV on the DNA, RNA and protein synthesis of HL-60 cells, respectively (in FIG. 1-3, lines 1, 2, 3 and 4 refer to the data of compounds I, II, III and IV, respectively). Tables 1 and 2 show the inhibitory effect of a “total organic acids” extract of the exudate of Boswellia serrata on DNA, RNA and protein synthesis or growth in HL-60 cells. […] The initial rates of incorporation of [^3H]-thymidine, [^3H]-uridine and [^3H]-leucine into trichloroacetic acid (TCA)-insoluble material were utilized to estimate the rates of DNA, RNA, and protein synthesis, respectively, in HL-60 cells. […] the inhibitory effects of compounds I-IV and the alcoholic extract on DNA. RNA and protein synthesis of HL-60 cells were in a dose-dependent manner. […] 0.9 and 0.6 μM, respectively, the incorporation of [3H]-uridine at concentrations of 7.1, 2.3. 2.2 and 0.5 μM, respectively, and the incorporation of [3H]-leucine into protein at concentrations of 6.3, 5.4, 5.1 and 4.1 μM, respectively, in cultured HL-60 cells incubated for 2 hours.
(§2) Various concentrations of the Boswellia serrata extract, as indicated above, were added to 1 mL of HL-60 cells suspended in RPMI medium. [^3H]thymidine (50 μCi/μmol: […]), [^3H]uridine (55 μCi/μmol; 5 μL), [^3H]leucine (200 μCi/μmol: 10 μL), were added to the cell suspension and incubated at 37° C. for 120 min. Reactions were terminated by addition of 3 mL of cold PBS, and the rates of DNA. RNA, and protein synthesis were determined.

The subject of series [2] is HL-60 cells. The experiment in a line: RNA synthesis ([3H]uridine incorporation) in HL-60 cells. Particulars: Homo sapiens; cultured HL-60 cells incubated for 2 hours; read-out: 50% inhibitory activity on the incorporation of [3H]-uridine. The class given is cell-based.
Description: as §1, §2

Series [3] has as its system HL-60 cells. The experiment in a line: DNA synthesis ([3H]thymidine incorporation) in HL-60 cells. It is filed as cell-based. Particulars: Homo sapiens; cultured HL-60 cells incubated for 2 hours; read-out: 50% inhibitory activity on the incorporation of [3H]-thymidine into DNA.
Description: as §1, §2
[^3H]Thymidine (3 μL; 50 μCi/μmol), vehicle or various concentrations of BSE in vehicle were added to 1 mL of HL-60 cells (5×10^5 cells/mL) in culture, and the cultures were incubated at 37° C. for 120 min. Data are expressed as the mean±SE calculated from triplicate studies. Data in parentheses are the percent inhibition of [^3H]thymidine incorporation into the DNA of HL-60 cells.

The target of a further series is T1, human leukocyte elastase (Homo sapiens, UniProt P08246).
T1 sequence (P08246 30-267): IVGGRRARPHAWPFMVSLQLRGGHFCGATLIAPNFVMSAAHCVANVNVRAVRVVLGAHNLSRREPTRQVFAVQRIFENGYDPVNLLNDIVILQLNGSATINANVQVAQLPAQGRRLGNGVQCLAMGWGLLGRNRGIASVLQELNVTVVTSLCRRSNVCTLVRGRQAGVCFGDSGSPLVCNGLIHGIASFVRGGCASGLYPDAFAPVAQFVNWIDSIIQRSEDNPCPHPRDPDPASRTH
Particulars: in vitro; Safayhi et al (1997); cited from earlier work.

Series [4] concerns HL-60 cells. The experiment in a line: Cellular growth of HL-60 cells in culture. The class given is cell-based. Particulars: Homo sapiens, HL-60, 96 h, 37° C., 4 days. Here is the method: (§3) The effect of compound IV on cellular growth of HL-60 cells was tested. […] In order to test whether this growth was the result of cell cytotoxicity, the effects of this compound on cell viability were examined after 4 days incubation using the trypan blue exclusion method. The cells viability at concentrations of 0, 1, 4, 16 μM were 97.0, 96.8, 96.5, or 96.7%, respectively.
Various concentrations of BSE, as indicated above, were added to the HL-60 cell cultures. These cultures were counted daily using a hemacytometer under a microscope with 10× magnification every 24 hours. Data are expressed as the mean=SE calculated from triplicate studies. Data in parentheses are the percent inhibition of cell growth.

Series [5] has as its system HL-60 cells. The experiment in a line: Reversibility of DNA synthesis inhibition after preincubation and washing. It is filed as cell-based, human. Particulars: preincubated at 2 and 8 μM for 30 min at 37° C., washed with PBS. The procedure:
In this experiment HL-60 cells were preincubated with compound IV at 2 and 8 μM for 30 min at 37° C., washed with phosphate buffer saline and [3H]-thymidine was added to the culture. At desired times, the reactions were terminated and the rates of DNA synthesis were determined.

Series [6] can be described thus: Cell viability of HL-60 cells, trypan blue exclusion method. It is filed as cell-based. Particulars: human, 4 days incubation. Here is the method:
as §3

With `CC1CCC2(C)CCC3(C)C(=CCC4(C)C3CCC3C(C)(C(=O)O)C(O)CCC34C)C2C1C` (stereo not drawn) [I, β-Boswellic Acid], the values for the IC50 in the series with HL-60 cells [1], with HL-60 cells [2] and in the series on HL-60 cells [3] were 6.3 µM, 7.1 µM and 3.7 µM, respectively.

As to `CC(=O)OC1CCC2(C)C(CCC3C4(C)CCC5(C)CCC(C)C(C)C5C4=CC(=O)C32C)C1(C)C(=O)O` (stereo not drawn) [IV, Acetyl-11-keto-β-Boswellic Acid], the IC50 in the series with HL-60 cells [1] is 4.1 µM; with HL-60 cells [2], 0.5 µM; with HL-60 cells [3], 0.6 µM; on human leukocyte elastase, roughly 15 µM. The compound also registered an inhibition at 1 µM in the series on HL-60 cells [4] (1 μM) of 54.5%. This compound also gave an inhibition at 4 µM in the series with HL-60 cells [4] (4 μM) of 71.8%. Also, at 16 µM the inhibition in the series with HL-60 cells [4] (16 μM) was 98.6%. Further, the “inhibitory action on DNA synthesis after washing” value in the series with HL-60 cells [5] is “irreversible”. The compound also returned a viability at 4 days, 1 µM in series [6] (1 μM) of 96.8%. The viability at 4 days, 4 µM in series [6] (4 μM) came out at 96.5%. For the same compound, in series [6] (16 μM), the viability at 4 days, 16 µM came to 96.7%.

With `CC(=O)OC1CCC2(C)C(CCC3C4(C)CCC5(C)CCC(C)C(C)C5C4=CCC32C)C1(C)C(=O)O` (stereo not drawn) [II, Acetyl-β-Boswellic Acid], the IC50 in the series on HL-60 cells [1] amounted to 5.4 µM; in the series with HL-60 cells [2], 2.3 µM; in the series on HL-60 cells [3] it was 1.4 µM.

`CC1CCC2(C)CCC3(C)C(=CC(=O)C4(C)C3CCC3C(C)(C(=O)O)C(O)CCC34C)C2C1C` (stereo not drawn) [III, 11-keto-β-Boswellic Acid]: the figures for the IC50 in the series on HL-60 cells [1], in the series on HL-60 cells [2] and with HL-60 cells [3] were 5.1 µM, 2.2 µM and 0.9 µM, respectively.
